Laboratory results taken from US10947242B2, “[1,2,4]triazolo[1,5and#8208;A]pyrimidine compounds as PDE2 inhibitors” (Janssen Pharmaceutica NV, priority 2016, dated 2021).

Legend:
Type in all cases: biochemical
[1] = biological target: T1, Human recombinant PDE2A (hPDE2A) (Homo sapiens, UniProt O00408); assay: In vitro assay PDE2A (SPA, 3H-cGMP hydrolysis); conditions: for Emax: read-out: hPDE2A Emax; for IC50: read-out: hPDE2A pIC50 (converted)
T1 construct: His tag (inferred from metal chelate purification); made in house; host or cells: Sf9 insect cells (baculovirus)
T1 sequence (O00408 whole entry): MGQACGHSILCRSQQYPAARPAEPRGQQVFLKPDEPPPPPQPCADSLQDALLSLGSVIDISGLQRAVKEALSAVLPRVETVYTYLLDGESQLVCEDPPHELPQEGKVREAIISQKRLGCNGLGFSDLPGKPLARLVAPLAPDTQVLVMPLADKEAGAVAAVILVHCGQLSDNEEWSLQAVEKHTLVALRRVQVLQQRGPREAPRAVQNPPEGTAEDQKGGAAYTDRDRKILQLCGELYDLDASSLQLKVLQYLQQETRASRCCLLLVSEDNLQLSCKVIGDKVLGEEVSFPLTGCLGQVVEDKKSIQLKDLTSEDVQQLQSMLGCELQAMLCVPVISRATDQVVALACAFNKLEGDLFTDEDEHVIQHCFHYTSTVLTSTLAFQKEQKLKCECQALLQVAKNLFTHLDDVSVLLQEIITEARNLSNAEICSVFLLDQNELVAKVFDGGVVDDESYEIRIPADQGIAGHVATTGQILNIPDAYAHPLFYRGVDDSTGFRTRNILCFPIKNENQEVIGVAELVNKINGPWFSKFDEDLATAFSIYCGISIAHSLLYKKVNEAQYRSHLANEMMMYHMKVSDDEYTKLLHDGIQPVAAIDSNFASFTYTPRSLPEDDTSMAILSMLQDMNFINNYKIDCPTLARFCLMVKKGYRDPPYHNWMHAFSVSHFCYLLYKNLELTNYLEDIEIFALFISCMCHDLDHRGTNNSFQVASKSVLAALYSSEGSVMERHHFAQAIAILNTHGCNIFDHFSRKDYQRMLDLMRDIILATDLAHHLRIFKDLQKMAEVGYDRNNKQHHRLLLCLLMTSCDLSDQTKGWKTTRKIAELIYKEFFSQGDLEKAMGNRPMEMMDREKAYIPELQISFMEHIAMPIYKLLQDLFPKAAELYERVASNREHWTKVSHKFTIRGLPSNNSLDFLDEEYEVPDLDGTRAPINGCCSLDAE

[2] = biological target: T2, Human recombinant PDE3A (hPDE3A) (Homo sapiens, UniProt Q14432); assay: In vitro assay PDE3A (SPA, 3H-cAMP hydrolysis); conditions: for IC50: hPDE3B pIC50, read-out: pIC50 (converted); for Emax: read-out: hPDE3B Emax, read-out: Emax;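 on all read-outs here: the method names PDE3A and the table heading PDE3B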
T2 construct: purchased Scottish Biomedical; host or cells: Sf9 insect cells
T2 sequence (Q14432 whole entry): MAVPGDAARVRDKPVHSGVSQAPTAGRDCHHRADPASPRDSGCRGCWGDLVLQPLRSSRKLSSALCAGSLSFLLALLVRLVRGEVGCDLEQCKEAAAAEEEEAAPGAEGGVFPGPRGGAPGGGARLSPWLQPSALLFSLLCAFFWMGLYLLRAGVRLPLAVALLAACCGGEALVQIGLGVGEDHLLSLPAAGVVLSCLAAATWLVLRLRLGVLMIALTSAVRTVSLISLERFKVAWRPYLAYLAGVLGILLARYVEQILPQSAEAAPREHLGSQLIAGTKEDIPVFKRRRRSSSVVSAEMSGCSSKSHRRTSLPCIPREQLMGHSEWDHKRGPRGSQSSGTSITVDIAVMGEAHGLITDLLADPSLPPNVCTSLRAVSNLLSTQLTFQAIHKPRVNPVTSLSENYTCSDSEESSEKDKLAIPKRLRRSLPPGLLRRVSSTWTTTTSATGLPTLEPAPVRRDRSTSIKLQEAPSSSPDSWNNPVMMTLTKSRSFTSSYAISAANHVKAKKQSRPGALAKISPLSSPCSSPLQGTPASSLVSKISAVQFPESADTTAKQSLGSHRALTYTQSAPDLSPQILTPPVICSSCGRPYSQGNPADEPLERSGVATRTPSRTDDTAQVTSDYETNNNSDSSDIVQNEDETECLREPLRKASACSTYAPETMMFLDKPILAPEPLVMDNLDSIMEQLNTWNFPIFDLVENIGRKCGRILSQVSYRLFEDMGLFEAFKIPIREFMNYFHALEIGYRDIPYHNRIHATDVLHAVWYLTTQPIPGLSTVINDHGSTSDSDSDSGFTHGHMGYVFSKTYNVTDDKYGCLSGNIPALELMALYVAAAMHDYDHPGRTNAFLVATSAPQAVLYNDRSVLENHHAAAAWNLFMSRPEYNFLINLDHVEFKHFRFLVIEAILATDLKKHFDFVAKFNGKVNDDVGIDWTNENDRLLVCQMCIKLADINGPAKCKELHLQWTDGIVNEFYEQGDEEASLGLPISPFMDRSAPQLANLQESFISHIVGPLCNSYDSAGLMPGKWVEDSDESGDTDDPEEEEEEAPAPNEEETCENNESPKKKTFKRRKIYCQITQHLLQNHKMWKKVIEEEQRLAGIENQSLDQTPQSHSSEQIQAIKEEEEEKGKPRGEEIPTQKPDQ
Procedure, shortened: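 Human PDE3A, cloned from brain, as partially purified Sf9 lysate. Substrate 0.4 μM cAMP plus [3H]-cAMP (2.4 μCi/ml final) in 50 mM Tris pH 7.8, 8.3 mM MgCl2, 1.7 mM EGTA, 60 min at room temperature, 1% DMSO final. Hydrolysis read by SPA scintillation counting against no-enzyme blanks and DMSO controls.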

[3] = biological target: T3, Human recombinant PDE10A (hPDE10A) (Homo sapiens, UniProt Q9Y233); assay: In vitro assay PDE10A, human clone (SPA, 3H-cAMP hydrolysis); conditions: human clone by default (no (r) mark); for Emax: read-out: hPDE10A2 or rPDE10A2 Emax; for IC50: read-out: hPDE10A2 or rPDE10A2 pIC50 (converted)
T3 construct: His tag (inferred from metal chelate purification); made in house; host or cells: Sf9 insect cells (baculovirus)
T3 sequence (Q9Y233 267-1055): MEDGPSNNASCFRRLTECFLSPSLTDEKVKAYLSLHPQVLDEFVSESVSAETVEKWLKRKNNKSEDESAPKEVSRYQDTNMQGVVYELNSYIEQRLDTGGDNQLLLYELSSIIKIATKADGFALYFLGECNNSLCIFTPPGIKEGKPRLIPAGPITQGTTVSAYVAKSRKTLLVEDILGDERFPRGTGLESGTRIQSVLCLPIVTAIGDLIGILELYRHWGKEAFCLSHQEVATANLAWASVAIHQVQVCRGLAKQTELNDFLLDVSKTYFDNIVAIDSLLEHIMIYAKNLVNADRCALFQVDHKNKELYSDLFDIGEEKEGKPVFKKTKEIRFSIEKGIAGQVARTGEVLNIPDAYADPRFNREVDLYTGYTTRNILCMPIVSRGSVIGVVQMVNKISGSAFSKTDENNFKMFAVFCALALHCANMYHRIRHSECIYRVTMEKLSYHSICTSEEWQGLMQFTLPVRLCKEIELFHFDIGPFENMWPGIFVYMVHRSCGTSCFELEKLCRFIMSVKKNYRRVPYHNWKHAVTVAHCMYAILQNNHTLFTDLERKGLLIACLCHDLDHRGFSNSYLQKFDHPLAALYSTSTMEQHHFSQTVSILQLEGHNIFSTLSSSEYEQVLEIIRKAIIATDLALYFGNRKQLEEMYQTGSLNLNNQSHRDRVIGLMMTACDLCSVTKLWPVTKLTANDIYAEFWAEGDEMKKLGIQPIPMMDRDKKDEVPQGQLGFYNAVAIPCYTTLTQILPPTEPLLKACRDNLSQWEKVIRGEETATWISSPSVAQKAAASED
Procedure, shortened: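 Human recombinant PDE10A was expressed in Sf9 cells via baculovirus and incubated with compound in 50 mM Tris pH 7.8, 8.3 mM MgCl2, 1.7 mM EGTA. Substrate was 60 nM cAMP plus 0.008 μCi 3H-cAMP for 60 min at room temperature, read by SPA scintillation counting. Controls used 1% DMSO, and blanks omitted enzyme.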

Row | Structure (SMILES) | Emax [1] | IC50 [1] | IC50 [2] | Emax [2] | Emax [3] | IC50 [3]
1 | C[C@@H]1CCN(C(=O)c2ccc3ccccc3n2)C[C@H]1c1cc(C(F)F)nc2ncnn12 [Compound 323] | 100% | 3.89 nM | 724 nM | 95% | 97% | 224 nM
2 | C[C@@H]1CCN(C(=O)c2ccc3cnccc3c2)C[C@H]1c1cc(C(F)F)nc2ncnn12 [Compound 326] | 100% | 2.14 nM | 257 nM | 97% | 99% | 60.3 nM
3 | COc1cc(C(=O)N2[C@H]3CC[C@H](c4cc(C(F)F)nc5ncnn45)[C@@H]2CC3)ccc1Cl [Compound 336] | 101% | 18.6 nM | 3240 nM | 78% | 87% | 1910 nM
4 | O=C(c1ccc(F)c(F)c1)N1[C@H]2CC[C@H](c3cc(C(F)F)nc4ncnn34)[C@@H]1CC2 [Compound 337] | 99% | 166 nM | > 10000 nM | 43% | 71% | 4570 nM
5 | O=C(c1ccc(C(F)(F)F)c(F)c1)N1[C@H]2CC[C@H](c3cc(C(F)F)nc4ncnn34)[C@@H]1CC2 [Compound 338] | 99% | 91.2 nM | 5500 nM | 62% | 70% | 3090 nM
6 | O=C(c1ccc(C(F)(F)F)cc1)N1[C@H]2CC[C@H](c3cc(C(F)F)nc4ncnn34)[C@@H]1CC2 [Compound 340] | 100% | 70.8 nM | 4270 nM | 69% | 72% | 3310 nM
7 | O=C(c1cc(F)cc(F)c1)N1[C@H]2CC[C@H](c3cc(C(F)F)nc4ncnn34)[C@@H]1CC2 [Compound 341] | 97% | 141 nM | > 10000 nM | 33% | 63% | 5010 nM
8 | O=C(c1ccc(OC(F)(F)F)c(F)c1)N1[C@H]2CC[C@H](c3cc(C(F)F)nc4ncnn34)[C@@H]1CC2 [Compound 342] | 100% | 32.4 nM | 4470 nM | 69% | 77% | 2690 nM
9 | COc1cc(C(=O)N2[C@H]3CC[C@H](c4cc(C(F)F)nc5ncnn45)[C@@H]2CC3)ccc1F [Compound 343] | 102% | 67.6 nM | > 10000 nM | 44% | 68% | 4570 nM
10 | Cc1cc(C(=O)N2[C@H]3CC[C@H](c4cc(C(F)F)nc5ncnn45)[C@@H]2CC3)cc(F)c1F [Compound 344] | 99% | 29.5 nM | 7240 nM | 61% | 80% | 2570 nM
11 | O=C(c1ccc(F)c(OC(F)F)c1)N1[C@H]2CC[C@H](c3cc(C(F)F)nc4ncnn34)[C@@H]1CC2 [Compound 345] | 99% | 75.9 nM | 8320 nM | 48% | 72% | 3720 nM
12 | CC(C)(C)c1ccc(C(=O)N2[C@H]3CC[C@H](c4cc(C(F)F)nc5ncnn45)[C@@H]2CC3)o1 [Compound 348] | 99% | 33.9 nM | 4470 nM | 70% | 92% | 1290 nM
13 | Cc1ccc(C(=O)N2[C@H]3CC[C@H](c4cc(C(F)F)nc5ncnn45)[C@@H]2CC3)s1 [Compound 349] | 102% | 22.4 nM | 4790 nM | 64% | 86% | 1780 nM
14 | O=C(c1ccc2c(c1)OC(F)(F)O2)N1[C@H]2CC[C@H](c3cc(C(F)F)nc4ncnn34)[C@@H]1CC2 [Compound 350] | 100% | 25.1 nM | 4900 nM | 74% | 85% | 2090 nM
15 | O=C(c1ccc(Cl)s1)N1[C@H]2CC[C@H](c3cc(C(F)F)nc4ncnn34)[C@@H]1CC2 [Compound 351] | 99% | 51.3 nM | 6310 nM | 69% | 83% | 2140 nM
16 | Cc1ccc(C(=O)N2[C@H]3CC[C@H](c4cc(C(F)F)nc5ncnn45)[C@@H]2CC3)o1 [Compound 354] | 100% | 89.1 nM | 9770 nM | 45% | 70% | 4470 nM
17 | O=C(c1ccc(F)c(C(F)(F)F)c1)N1[C@H]2CC[C@H](c3cc(C(F)F)nc4ncnn34)[C@@H]1CC2 [Compound 357] | 98% | 77.6 nM | > 10000 nM | 34% | 73% | 3390 nM

Row | Structure (SMILES) | Emax [1] | IC50 [1] | IC50 [2] | Emax [2] | Emax [3] | IC50 [3]
18 | Cc1cc(C(=O)N2[C@H]3CC[C@H](c4cc(C(F)F)nc5ncnn45)[C@@H]2CC3)c(C)s1 [Compound 358] | 102% | 26.9 nM | > 10000 nM | 40% | 58% | 7940 nM
19 | COc1c(F)cc(C(=O)N2[C@H]3CC[C@H](c4cc(C(F)F)nc5ncnn45)[C@@H]2CC3)cc1F [Compound 359] | 99% | 12 nM | 3980 nM | 71% | 86% | 2140 nM
20 | Cc1cc(C(=O)N2CC[C@@H](C)[C@H](c3cc(C(F)F)nc4ncnn34)C2)cc(CO)n1 [Compound 361] | 100% | 2.75 nM | > 10000 nM | 37% | 92% | 355 nM
21 | Cc1cnc(C(=O)N2[C@H]3CC[C@H](c4cc(C(F)F)nc5ncnn45)[C@@H]2CC3)cc1C [Compound 365] | 99% | 63.1 nM | > 10000 nM | 24% | 33% | > 10000 nM
22 | O=C(c1cc2n(n1)CCO2)N1[C@H]2CC[C@H](c3cc(C(F)F)nc4ncnn34)[C@@H]1CC2 [Compound 367] | 97% | 437 nM | > 10000 nM | 21% | 44% | > 10000 nM
23 | C/C(=C\c1ccc(F)cc1)C(=O)N1[C@H]2CC[C@H](c3cc(C(F)F)nc4ncnn34)[C@@H]1CC2 [Compound 370] | 100% | 33.9 nM | 1450 nM | 87% | 94% | 661 nM
24 | C/C(=C\c1ccccc1)C(=O)N1[C@H]2CC[C@H](c3cc(C(F)F)nc4ncnn34)[C@@H]1CC2 [Compound 371] | 101% | 13.8 nM | 389 nM | 96% | 98% | 389 nM
25 | O=C(c1ccc2sccc2c1)N1[C@H]2CC[C@H](c3cc(C(F)F)nc4ncnn34)[C@@H]1CC2 [Compound 372] | 100% | 1.02 nM | 1350 nM | 90% | 96% | 251 nM
26 | Cc1cc2cc(C(=O)N3[C@H]4CC[C@H](c5cc(C(F)F)nc6ncnn56)[C@@H]3CC4)ccc2n1C [Compound 373] | 100% | 2.69 nM | 537 nM | 97% | 99% | 316 nM
27 | Cn1ccc2cc(C(=O)N3[C@H]4CC[C@H](c5cc(C(F)F)nc6ncnn56)[C@@H]3CC4)cc(F)c21 [Compound 374] | 100% | 0.741 nM | 741 nM | 97% | 98% | 182 nM
28 | CN1CCOc2cc(C(=O)N3[C@H]4CC[C@H](c5cc(C(F)F)nc6ncnn56)[C@@H]3CC4)ccc21 [Compound 378] | 99% | 1.7 nM | 759 nM | 96% | 97% | 407 nM
29 | Cn1cnc2cc(C(=O)N3[C@H]4CC[C@H](c5cc(C(F)F)nc6ncnn56)[C@@H]3CC4)ccc21 [Compound 379] | 102% | 11.2 nM | 5250 nM | 67% | 87% | 1620 nM
30 | Cn1ncc2cc(C(=O)N3[C@H]4CC[C@H](c5cc(C(F)F)nc6ncnn56)[C@@H]3CC4)ccc21 [Compound 380] | 101% | 5.5 nM | 3980 nM | 72% | 96% | 363 nM
31 | O=C(c1ccc2nccnc2c1)N1[C@H]2CC[C@H](c3cc(C(F)F)nc4ncnn34)[C@@H]1CC2 [Compound 381] | 99% | 7.59 nM |  | 48% | 88% | 1320 nM
32 | Cn1ccc2cc(C(=O)N3[C@H]4CC[C@H](c5cc(C(F)F)nc6ncnn56)[C@@H]3CC4)ncc21 [Compound 382] | 99% | 10.2 nM | > 10000 nM | 37% | 75% | 3980 nM
33 | Cc1cc([C@@H]2CN(C(=O)c3cc(C4CC4)ncc3C3CC3)CC[C@H]2C)n2ncnc2n1 [Compound 390] | 98% | 2.09 nM | 2570 nM | 84% | 99% | 61.7 nM
